Laboratory results reported in the supplement of paper PMC11208160.

Test: recombinant UMI read abundance after kanamycin selection (control-corrected) (log10(CPM+1)); higher = more efficient recombination; extreme values may be limits of the assay; sequences stand for … in AGTGCAGAGAAAATCGGCCAGTTTTCTCTGCCTGCAGTCCGCATGCCGTGGGACCCCTTGGGTTCTAACCTGTTGCCTAGATTTATGCAGCGGACTGCCTTTCTCCCAAAGTGATAAACCGG…AGGTTGGTTTCACT; site = the 11-nt donor
Outline: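 Values are reported as log10(CPM+1), obtained by converting sequencing counts to CPM, averaging replicates and scaling by control-derived factors. The counts came from recombinant UMIs amplified by PCR across the donor–target junction. These UMIs came from a pooled Escherichia coli screen of donor and donor-binding-loop pairs for the IS621 bridge recombinase, plated with IPTG (0.07 mM) plus kanamycin or left unselected, in two replicates each.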
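Note: IS621 bridge recombinase in Escherichia coli cells against a fixed T5 target plasmid.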

| Sequence | recombinant UMI read abundance (log10) |
| --- | --- |
| CTGCAAACATGGACCGGTTTTCCCGGTAATCCGTATTTGCA (site CTGTAAACTTG) | 0 |
| CTGCACCCATGGACCGGTTTTCCCGGTAATCCGTATTTGGC (site CTGCACCCTGC) | 0.469 |
| CTGCAGGCATGGACCGGTTTTCCCGGTAATCCGTATTTGAG (site CTGCAGGCTCT) | 1.5 |
| CTGCATGCATGGACCGGTTTTCCCGGTAATCCGTATTTGGT (site ATGCATGCTAC) | 0.0144 |
| CTGCATGCATGGACCGGTTTTCCCGGTAATCCGTATTTGGT (site CTGCATGCTAC) | 1.57 |
| CTGCATGCATGGACCGGTTTTCCCGGTAATCCGTATTTGGT (site GTGCATGCTAC) | 0.0408 |
| CTGCATGCATGGACCGGTTTTCCCGGTAATCCGTATTTGGT (site TTGCATGCTAC) | 0.0633 |
| CTGCCAACATGGACCGGTTTTCCCGGTAATCCGTATTTGAA (site CTGCCAACTTT) | 0.912 |
| CTGCCGGCATGGACCGGTTTTCCCGGTAATCCGTATTTGCA (site CTGCCGGCTTG) | 2.01 |
| CTGCCTACATGGACCGGTTTTCCCGGTAATCCGTATTTGAG (site CTACCTACTCT) | 1.04 |
| CTGCCTACATGGACCGGTTTTCCCGGTAATCCGTATTTGAG (site CTCCCTACTCT) | 0.00401 |
| CTGCCTACATGGACCGGTTTTCCCGGTAATCCGTATTTGAG (site CTGCCTACTCT) | 1.03 |
| CTGCCTACATGGACCGGTTTTCCCGGTAATCCGTATTTGAG (site CTTCCTACTCT) | 0.12 |
| CTGCGAACATGGACCGGTTTTCCCGGTAATCCGTATTTGCA (site CTGCGAACTTG) | 1.38 |
| CTGCGGTCATGGACCGGTTTTCCCGGTAATCCGTATTTGTC (site CTGCGGTCTGA) | 2.1 |
| CTGCGTGCATGGACCGGTTTTCCCGGTAATCCGTATTTGGT (site CTGCGTGCTAC) | 1.37 |
| CTGCTACCATGGACCGGTTTTCCCGGTAATCCGTATTTGCG (site CTGCTACCTAG) | 0 |
| CTGCTACCATGGACCGGTTTTCCCGGTAATCCGTATTTGCG (site CTGCTACCTCG) | 0.309 |
| CTGCTACCATGGACCGGTTTTCCCGGTAATCCGTATTTGCG (site CTGCTACCTGG) | 0 |
| CTGCTACCATGGACCGGTTTTCCCGGTAATCCGTATTTGCG (site CTGCTACCTTG) | 0 |
| CTGCTACCATGGACCGGTTTTCCCGGTAATCCGTATTTGTT (site CTGCTACCTAA) | 0.0134 |
| CTGCTACCATGGACCGGTTTTCCCGGTAATCCGTATTTGTT (site CTGCTACCTAC) | 0.0167 |
| CTGCTACCATGGACCGGTTTTCCCGGTAATCCGTATTTGTT (site CTGCTACCTAG) | 0 |
| CTGCTACCATGGACCGGTTTTCCCGGTAATCCGTATTTGTT (site CTGCTACCTAT) | 0.011 |
| CTGCTAGCATGGACCGGTTTTCCCGGTAATCCGTATTTGCT (site CTGCTAACTAG) | 0 |

| Sequence | recombinant UMI read abundance (log10) |
| --- | --- |
| CTGCTAGCATGGACCGGTTTTCCCGGTAATCCGTATTTGCT (site CTGCTACCTAG) | 0 |
| CTGCTAGCATGGACCGGTTTTCCCGGTAATCCGTATTTGCT (site CTGCTAGCTAG) | 0 |
| CTGCTAGCATGGACCGGTTTTCCCGGTAATCCGTATTTGCT (site CTGCTATCTAG) | 0 |
| CTGCTATCATGGACCGGTTTTCCCGGTAATCCGTATTTGCT (site CTGCTAACTAG) | 0.708 |
| CTGCTATCATGGACCGGTTTTCCCGGTAATCCGTATTTGCT (site CTGCTACCTAG) | 0 |
| CTGCTATCATGGACCGGTTTTCCCGGTAATCCGTATTTGCT (site CTGCTAGCTAG) | 0.0179 |
| CTGCTATCATGGACCGGTTTTCCCGGTAATCCGTATTTGCT (site CTGCTATCTAG) | 2.33 |
| CTGCTGCCATGGACCGGTTTTCCCGGTAATCCGTATTTGCT (site CTGCTACCTAG) | 0.00624 |
| CTGCTGCCATGGACCGGTTTTCCCGGTAATCCGTATTTGCT (site CTGCTCCCTAG) | 0.506 |
| CTGCTGCCATGGACCGGTTTTCCCGGTAATCCGTATTTGCT (site CTGCTGCCTAG) | 1.22 |
| CTGCTGCCATGGACCGGTTTTCCCGGTAATCCGTATTTGCT (site CTGCTTCCTAG) | 0 |
| CTGCTTCCATGGACCGGTTTTCCCGGTAATCCGTATTTGCT (site CTGCTACCTAG) | 0 |
| CTGCTTCCATGGACCGGTTTTCCCGGTAATCCGTATTTGCT (site CTGCTCCCTAG) | 0.807 |
| CTGCTTCCATGGACCGGTTTTCCCGGTAATCCGTATTTGCT (site CTGCTGCCTAG) | 0.00367 |
| CTGCTTCCATGGACCGGTTTTCCCGGTAATCCGTATTTGCT (site CTGCTTCCTAG) | 1.73 |
| CTGGAACCATGGACCGGTTTTCCCGGTAATCCGTATTTGAT (site CAGGAACCTAT) | 0 |
| CTGGAACCATGGACCGGTTTTCCCGGTAATCCGTATTTGAT (site CCGGAACCTAT) | 0 |
| CTGGAACCATGGACCGGTTTTCCCGGTAATCCGTATTTGAT (site CGGGAACCTAT) | 0 |
| CTGGAACCATGGACCGGTTTTCCCGGTAATCCGTATTTGAT (site CTGGAACCTAT) | 0 |
| CTGGAACCATGGACCGGTTTTCCCGGTAATCCGTATTTGCA (site CTGGAAACTTG) | 0 |
| CTGGAACCATGGACCGGTTTTCCCGGTAATCCGTATTTGCA (site CTGGAACCTTG) | 0 |
| CTGGAACCATGGACCGGTTTTCCCGGTAATCCGTATTTGCA (site CTGGAAGCTTG) | 0.00806 |
| CTGGAACCATGGACCGGTTTTCCCGGTAATCCGTATTTGCA (site CTGGAATCTTG) | 2.36 |
| CTGGACACATGGACCGGTTTTCCCGGTAATCCGTATTTGCA (site CTGGAAACTTG) | 0.462 |
| CTGGACACATGGACCGGTTTTCCCGGTAATCCGTATTTGCA (site CTGGACACTTG) | 2.59 |

| Sequence | recombinant UMI read abundance (log10) |
| --- | --- |
| CTGGACACATGGACCGGTTTTCCCGGTAATCCGTATTTGCA (site CTGGAGACTTG) | 0.00455 |
| CTGGACACATGGACCGGTTTTCCCGGTAATCCGTATTTGCA (site CTGGATACTTG) | 1.66 |
| CTGGGCCCATGGACCGGTTTTCCCGGTAATCCGTATTTGCC (site CTGGGCCCTGG) | 0 |
| CTGGTAACATGGACCGGTTTTCCCGGTAATCCGTATTTGCA (site CTGGAAACTTG) | 1.03 |
| CTGGTAACATGGACCGGTTTTCCCGGTAATCCGTATTTGCA (site CTGGCAACTTG) | 0.197 |
| CTGGTAACATGGACCGGTTTTCCCGGTAATCCGTATTTGCA (site CTGGGAACTTG) | 0 |
| CTGGTAACATGGACCGGTTTTCCCGGTAATCCGTATTTGCA (site CTGGTAACTTG) | 2.06 |
| CTGGTATCATGGACCGGTTTTCCCGGTAATCCGTATTTGAC (site CTAGTATCTGT) | 3.16 |
| CTGGTATCATGGACCGGTTTTCCCGGTAATCCGTATTTGAC (site CTCGTATCTGT) | 0 |
| CTGGTATCATGGACCGGTTTTCCCGGTAATCCGTATTTGAC (site CTGGTATCTGT) | 3.22 |
| CTGGTATCATGGACCGGTTTTCCCGGTAATCCGTATTTGAC (site CTTGTATCTGT) | 0.816 |
| CTGGTCGCATGGACCGGTTTTCCCGGTAATCCGTATTTGCA (site CTGGTCGCTTG) | 2.01 |
| CTGTACCCATGGACCGGTTTTCCCGGTAATCCGTATTTGAG (site CTGTACCCTCT) | 0.00463 |
| CTGTCAGCATGGACCGGTTTTCCCGGTAATCCGTATTTGGT (site CTGTCAGCTAC) | 0.563 |
| CTGTCCTCATGGACCGGTTTTCCCGGTAATCCGTATTTGTT (site CTGTCCTCTAA) | 1.92 |
| CTGTCGACATGGACCGGTTTTCCCGGTAATCCGTATTTGGT (site CTGTCGACTAC) | 0.884 |
| CTGTCGGCATGGACCGGTTTTCCCGGTAATCCGTATTTGCC (site CTGTCGGCTGG) | 0 |
| CTGTCTCCATGGACCGGTTTTCCCGGTAATCCGTATTTGAG (site CTGTCTCCTCT) | 0.0686 |
| CTGTCTTCATGGACCGGTTTTCCCGGTAATCCGTATTTGGG (site CTGTCTTCTCC) | 0.0096 |
| CTGTGAACATGGACCGGTTTTCCCGGTAATCCGTATTTGTT (site CTGTGAACTAA) | 1.15 |
| CTTACTACATGGACCGGTTTTCCCGGTAATCCGTATTTGGA (site CTTACTACTTC) | 0.205 |
| CTTAGGCCATGGACCGGTTTTCCCGGTAATCCGTATTTGAA (site CTTAGGCCTTT) | 0.104 |
| CTTATCTCATGGACCGGTTTTCCCGGTAATCCGTATTTGTA (site CTTATCTCTTA) | 2.27 |
| CTTATCTCATGGACCGGTTTTCCCGGTAATCCGTATTTGTA (site CTTCTCTCTTA) | 0.475 |
| CTTATCTCATGGACCGGTTTTCCCGGTAATCCGTATTTGTA (site CTTGTCTCTTA) | 0.606 |
